According to the supplement of paper PMC11451515:

Test system: SEM cells
Assay: cell viability relative to DMSO control; higher = less cytotoxic
Settings: 48 h
Summary of the method: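 Cells were incubated for 48 h at 37°C before CellTiter-Glo One luminescence was read. The cells were NOMO1 or SEM (500 cells/well) or P12-Ichikawa (1000 cells/well) leukemia cells, adapted for at least four passages in each medium and seeded in 1536-well plates (5 μl). Dosing used library compounds in DMSO applied by pin over 11 threefold points, 47 μM to 0.79 nM. Viability is the per-plate percentage of DMSO wells, with cell-free wells as background.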

[1] = HPLM + 10% dialyzed FBS, 0.000781 µM
[2] = HPLM + 10% dialyzed FBS, 0.00234 µM
[3] = HPLM + 10% dialyzed FBS, 0.00702 µM
[4] = HPLM + 10% dialyzed FBS, 0.0211 µM
[5] = HPLM + 10% dialyzed FBS, 0.0632 µM
[6] = HPLM + 10% dialyzed FBS, 0.19 µM
[7] = HPLM + 10% dialyzed FBS, 0.569 µM
[8] = HPLM + 10% dialyzed FBS, 1.71 µM
[9] = HPLM + 10% dialyzed FBS, 5.12 µM
[10] = HPLM + 10% dialyzed FBS, 15.4 µM
[11] = HPLM + 10% dialyzed FBS, 46.1 µM
[12] = RPMI 5 mM glucose + 10% FBS, 0.000781 µM
[13] = RPMI 5 mM glucose + 10% FBS, 0.00234 µM
[14] = RPMI 5 mM glucose + 10% FBS, 0.00702 µM
[15] = RPMI 5 mM glucose + 10% FBS, 0.0211 µM
[16] = RPMI 5 mM glucose + 10% FBS, 0.0632 µM
[17] = RPMI 5 mM glucose + 10% FBS, 0.19 µM
[18] = RPMI 5 mM glucose + 10% FBS, 0.569 µM
[19] = RPMI 5 mM glucose + 10% FBS, 1.71 µM
[20] = RPMI 5 mM glucose + 10% FBS, 5.12 µM
[21] = RPMI 5 mM glucose + 10% FBS, 15.4 µM
[22] = RPMI 5 mM glucose + 10% FBS, 46.1 µM
[23] = RPMI 5 mM glucose + 10% dialyzed FBS, 0.000781 µM
[24] = RPMI 5 mM glucose + 10% dialyzed FBS, 0.00234 µM
[25] = RPMI 5 mM glucose + 10% dialyzed FBS, 0.00702 µM
[26] = RPMI 5 mM glucose + 10% dialyzed FBS, 0.0211 µM
[27] = RPMI 5 mM glucose + 10% dialyzed FBS, 0.0632 µM
[28] = RPMI 5 mM glucose + 10% dialyzed FBS, 0.19 µM
[29] = RPMI 5 mM glucose + 10% dialyzed FBS, 0.569 µM
[30] = RPMI 5 mM glucose + 10% dialyzed FBS, 1.71 µM
[31] = RPMI 5 mM glucose + 10% dialyzed FBS, 5.12 µM
[32] = RPMI 5 mM glucose + 10% dialyzed FBS, 15.4 µM
[33] = RPMI 5 mM glucose + 10% dialyzed FBS, 46.1 µM

## CCC(=O)O[C@@]1(CC[C@H]2[C@@H]3CCC/4=C/C(=O)CC[C@]4(C)[C@H]3CC[C@]12C)C(=O)CO
[1]
  cell viability: 95.3%
[2]
  cell viability: 100%
[3]
  cell viability: 101%
[4]
  cell viability: 110%
[5]
  cell viability: 109%
[6]
  cell viability: 98.8%
[7]
  cell viability: 86.7%
[8]
  cell viability: 57.4%
[9]
  cell viability: 46.1%
[10]
  cell viability: 27.3%
[11]
  cell viability: 23.7%
[12]
  cell viability: 63.3%
[13]
  cell viability: 83.6%
[14]
  cell viability: 86%
[15]
  cell viability: 84%
[16]
  cell viability: 84.8%
[17]
  cell viability: 76.1%
[18]
  cell viability: 51%
[19]
  cell viability: 35.3%
[20]
  cell viability: 24.3%
[21]
  cell viability: 14.1%
[22]
  cell viability: 12.7%
[23]
  cell viability: 95.1%
[24]
  cell viability: 103%
[25]
  cell viability: 99.9%
[26]
  cell viability: 88.5%
[27]
  cell viability: 98%
[28]
  cell viability: 91.7%
[29]
  cell viability: 79.7%
[30]
  cell viability: 47.2%
[31]
  cell viability: 27.6%
[32]
  cell viability: 19.5%
[33]
  cell viability: 13.8%

## O=C(Nc1ccccc1)Nc1ccc(-c2ccc(C(=O)[C@@H]3CCC[C@H]3C(=O)O)cc2)cc1
[1]
  cell viability: 101%
[2]
  cell viability: 111%
[3]
  cell viability: 101%
[4]
  cell viability: 110%
[5]
  cell viability: 110%
[6]
  cell viability: 103%
[7]
  cell viability: 99.8%
[8]
  cell viability: 107%
[9]
  cell viability: 108%
[10]
  cell viability: 106%
[11]
  cell viability: 105%
[12]
  cell viability: 102%
[13]
  cell viability: 102%
[14]
  cell viability: 111%
[15]
  cell viability: 108%
[16]
  cell viability: 109%
[17]
  cell viability: 99.5%
[18]
  cell viability: 114%
[19]
  cell viability: 97.6%
[20]
  cell viability: 94.6%
[21]
  cell viability: 91.2%
[22]
  cell viability: 114%
[23]
  cell viability: 109%
[24]
  cell viability: 103%
[25]
  cell viability: 107%
[26]
  cell viability: 124%
[27]
  cell viability: 104%
[28]
  cell viability: 99.7%
[29]
  cell viability: 101%
[30]
  cell viability: 95.4%
[31]
  cell viability: 113%
[32]
  cell viability: 107%
[33]
  cell viability: 123%

## CCC(=O)N1CCN(CC1)C2=C(C=C(C=C2)N3C(=O)\C=C/C4=C3C5=CC(=CC=C5N=C4)C6=CN=C7C=CC=CC7=C6)C(F)(F)F
[1]
  cell viability: 77.6%
[2]
  cell viability: 88.7%
[3]
  cell viability: 85.9%
[4]
  cell viability: 73.8%
[5]
  cell viability: 57.8%
[6]
  cell viability: 67.8%
[7]
  cell viability: 46.9%
[8]
  cell viability: 48.7%
[9]
  cell viability: 47.5%
[10]
  cell viability: 34.4%
[11]
  cell viability: 29%
[12]
  cell viability: 97%
[13]
  cell viability: 102%
[14]
  cell viability: 90.1%
[15]
  cell viability: 80.6%
[16]
  cell viability: 56.7%
[17]
  cell viability: 59.7%
[18]
  cell viability: 48%
[19]
  cell viability: 45%
[20]
  cell viability: 45%
[21]
  cell viability: 47.9%
[22]
  cell viability: 30.9%
[23]
  cell viability: 83.4%
[24]
  cell viability: 92.6%
[25]
  cell viability: 91.5%
[26]
  cell viability: 84.1%
[27]
  cell viability: 61.2%
[28]
  cell viability: 62.7%
[29]
  cell viability: 46%
[30]
  cell viability: 54.7%
[31]
  cell viability: 42.5%
[32]
  cell viability: 42.8%
[33]
  cell viability: 33.1%

## C=C1CCC2[C@](C)(CO)C(O)CC[C@]2(C)C1C/C=C1/C(=O)OCC1O (some centres not stated)
[1]
  cell viability: 122%
[2]
  cell viability: 122%
[3]
  cell viability: 112%
[4]
  cell viability: 126%
[5]
  cell viability: 116%
[6]
  cell viability: 111%
[7]
  cell viability: 109%
[8]
  cell viability: 105%
[9]
  cell viability: 103%
[10]
  cell viability: 117%
[11]
  cell viability: 93.3%
[12]
  cell viability: 125%
[13]
  cell viability: 115%
[14]
  cell viability: 118%
[15]
  cell viability: 97.8%
[16]
  cell viability: 108%
[17]
  cell viability: 99.2%
[18]
  cell viability: 88.3%
[19]
  cell viability: 87.1%
[20]
  cell viability: 81.5%
[21]
  cell viability: 84.8%
[22]
  cell viability: 85.6%
[23]
  cell viability: 129%
[24]
  cell viability: 120%
[25]
  cell viability: 121%
[26]
  cell viability: 115%
[27]
  cell viability: 113%
[28]
  cell viability: 116%
[29]
  cell viability: 109%
[30]
  cell viability: 106%
[31]
  cell viability: 109%
[32]
  cell viability: 96.3%
[33]
  cell viability: 92.3%
